Measurements from the NIST ThermoML archive (doi:10.1021/acs.jced.5b00412).
± gives the expanded uncertainty stated by the source.

Assay: wn = mass fraction of the nth substance listed
Conditions: 101.3 kPa, Liquid, Vibrating tube method

NCCCO [3-amino-1-propanol] + O
mass density [kg/m3]
Conditions | w1 = 0.1 | w1 = 0.2 | w1 = 0.3 | w1 = 0.41 | w1 = 0.51 | w1 = 0.61 | w1 = 0.7 | w1 = 0.8 | w1 = 0.91 | w1 = 1
293.15 K | 998.7 ± 2.9 | 1002.2 ± 3.1 | 1005.9 ± 2.9 | 1008.8 ± 2.9 | 1011.3 ± 2.9 | 1015.4 ± 2.8 | 1014.9 ± 2.9 | 1009.8 ± 3.1 | 1001.4 ± 3.6 | 987.5 ± 2.8
298.15 K | 997.3 ± 2.9 | 1000.4 ± 2.9 | 1003.7 ± 2.9 | 1006 ± 2.9 | 1008.2 ± 2.9 | 1011.8 ± 2.8 | 1011.2 ± 2.9 | 1005.9 ± 3.1 | 997.5 ± 3.6 | 983.6 ± 2.8
303.15 K | 995.7 ± 2.9 | 998.4 ± 2.9 | 1001.3 ± 2.9 | 1003.1 ± 2.8 | 1005 ± 2.9 | 1008 ± 2.8 | 1007.3 ± 2.9 | 1002 ± 3.1 | 993.5 ± 3.6 | 979.6 ± 2.8
308.15 K | 993.9 ± 2.9 | 996.3 ± 2.9 | 998.8 ± 2.8 | 1000.1 ± 2.8 | 1001.8 ± 2.8 | 1003.9 ± 2.8 | 1003.4 ± 2.9 | 998 ± 3.1 | 989.5 ± 3.6 | 975.5 ± 2.8
313.15 K | 991.9 ± 2.9 | 994 ± 2.9 | 996.2 ± 2.8 | 997.1 ± 2.8 | 998.5 ± 2.8 | 1001 ± 2.8 | 999.2 ± 2.9 | 994 ± 3.1 | 985.5 ± 3.6 | 971.5 ± 2.8
318.15 K | 989.7 ± 2.8 | 991.6 ± 2.8 | 993.3 ± 2.8 | 993.9 ± 2.8 | 995 ± 2.8 | 997.2 ± 2.8 | 995.6 ± 2.9 | 990 ± 3.1 | 981.5 ± 3.6 | 967.5 ± 2.8
323.15 K | 987.3 ± 2.8 | 989 ± 2.8 | 990.6 ± 2.8 | 990.6 ± 2.8 | 991.5 ± 2.8 | 993.3 ± 2.8 | 991.7 ± 2.9 | 986 ± 3.1 | 977.5 ± 3.6 | 963.4 ± 2.8
328.15 K | 984.8 ± 2.8 | 986.3 ± 2.8 | 987.6 ± 2.8 | 987.9 ± 2.8 | 988 ± 2.8 | 989.5 ± 2.8 | 987.8 ± 2.9 | 981.9 ± 3.1 | 973.4 ± 3.6 | 959.3 ± 2.8
333.15 K | 983 ± 2.8 | 983.5 ± 2.8 | 984.5 ± 2.8 | 984.5 ± 2.8 | 984.4 ± 2.8 | 985.6 ± 2.8 | 983.9 ± 2.9 | 977.7 ± 3.2 | 969.3 ± 3.5 | 955.8 ± 2.8
338.15 K | 980.3 ± 2.8 | 980.5 ± 2.8 | 981.3 ± 2.8 | 981.9 ± 2.8 | 980.8 ± 2.8 | 981.6 ± 2.8 | 979.9 ± 3 | 973.2 ± 3.2 | 965.2 ± 3.5 | 951.7 ± 2.8
343.15 K | 977.5 ± 2.8 | 977.5 ± 2.8 | 978 ± 2.8 | 978.3 ± 2.8 | 977.5 ± 2.8 | 977.6 ± 2.8 | 975.8 ± 3 | 969.1 ± 3.2 | 961 ± 3.5 | 947.6 ± 2.8
348.15 K | 974.5 ± 2.8 | 974.3 ± 2.8 | 974.6 ± 2.8 | 974.7 ± 2.8 | 972.9 ± 2.8 | 973.6 ± 2.8 | 971.6 ± 3 | 965.1 ± 3.2 | 956.9 ± 3.5 | 943.5 ± 2.8
353.15 K | 971.2 ± 2.8 | 971 ± 2.8 | 971.1 ± 2.8 | 971.1 ± 2.8 | 970.8 ± 2.8 | 969.5 ± 2.8 | 967.4 ± 3 | 961.2 ± 3.2 | 952.7 ± 3.6 | 939.3 ± 2.8
